Values of other authors as cited in patent publication US6713950B2, “Low volatility slurry for emission mix powder” (General Electric Company, priority 2001, dated 2004).

System: rats

Which “oral LD50” value does the source give for polyethylene glycol 200 [PEG 200] here?
Its value is 28000 mg/kg.
